For twelve molecules, IC50 results are on record in patent US12590123B2, “Compounds and methods for treating cancer, viral infections, and allergic conditions” (Washington University, priority 2019, dated 2026).

What all share (type): biochemical
For experiment [1], the target named is T1, recombinant HGFA serine protease domain (Homo sapiens, UniProt Q04756).
T1 construct: His6 tag (N); seven amino acid spacer plus TEV cleavage site (N); made in house; host or cells: High 5 insect cells (baculovirus; Sf9 for virus production)
T1 sequence (Q04756 373-655): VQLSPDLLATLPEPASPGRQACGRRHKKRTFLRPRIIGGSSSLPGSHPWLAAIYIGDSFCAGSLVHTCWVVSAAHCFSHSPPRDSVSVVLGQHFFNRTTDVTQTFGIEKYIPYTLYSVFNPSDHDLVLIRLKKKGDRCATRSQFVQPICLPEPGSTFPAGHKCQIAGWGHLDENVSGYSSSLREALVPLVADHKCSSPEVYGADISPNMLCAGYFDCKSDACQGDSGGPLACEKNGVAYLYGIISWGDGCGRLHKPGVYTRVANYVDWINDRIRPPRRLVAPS
Nature of the experiment: Fluorescent kinetic enzyme assay of HGFA activity (Boc-QLR-AMC). The text has this: The compounds prepared in Examples 1 to 8 were subjected to a series of inhibitions studies. The compounds were first tested in an HGFA enzymatic assay using the fluorogenic substrate Boc-QLR-AMC with a recombinant form of the HGFA serine protease domain.
This PCR product was cloned into the SfoI-HindIII sites of a modified pFastBac HT baculovirus expression vector (Addgene, Cambridge, MA). This vector contains a six amino His tag followed by a seven amino spacer and a seven amino acid TEV cleavage site placed immediately downstream of the honey bee melittin signal peptide. Using a modified Bac to Bac Expression System (Life Technologies, Carlsbad, CA), recombinant HGFA bacmids were obtained by transforming DH10Bac Escherichia coli cells. To obtain HGFA containing baculovirus, purified bacmids were transfected into Sf9 insect cells. After 5 days in culture at 27° C., media was harvested from transfected Sf9 cells. This media was used to prepare baculovirus infected insect cells (BIICs). These BIIICs were used to infect High 5 insect cells. Four days post infection, media was harvested, and recombinant protein was prepared as follows. Media was chilled to 4° C. and spun at 4000×g for 20 minutes (all subsequent steps were performed at 4° C. unless noted). Clarified media was passed first through a Whatman GF/B 1 um (#1821-047, GE Healthcare Life Sciences, Piscataway, NJ) and then a 0.22 μm PES membrane (#99955, TPP Techno Plastic Products AG, Trasadingen, Switzerland) and then concentrated using a Pall Centramate tangential flow system and Centramate T-series Cassette (#OS010T12, Pall Corporation, Port Washington, NY). Concentrated media was then buffer exchanged in two steps, five volumes of 50 mM Na-phosphate, 500 mM NaCl, pH 6.2, followed by five volumes of 50 mM Na-phosphate, 500 mM NaCl, pH 7.5. […] After mixing this slurry for 12 hours, nickel agarose beads were allowed to settle by gravity and then loaded into a column. Beads were washed with buffer (25 mM Na-phosphate, 500 mM NaCl, 25 mM imidazole, pH 8) and the bound protein eluted using (25 mM Na-phosphate, 500 mM NaCl, 250 mM imidazole, pH 8). Using a Amicon Ultra-4 Centrifugal filters (#UFC801008, Merck Millipore, Ltd., Tullagreen, Ireland), peak protein fractions were concentrated and run over a Superdex-200 10/300 GL column (GE Healthcare Life Sciences, Piscataway, NJ) in 10 mM Tris, 200 mM NaCl, 0.2 mM EDTA, pH 8. HGFA containing fractions were pooled, concentrated, made 50% glycerol, and stored at minus 20° C. Protein was quantitated using a modified Lowry protein assay (#500-0006, Bio-Rad Laboratories, Hercules, CA) and specific activity determined using Boc-QLR-AMC substrate.
Fluorescent kinetic enzyme assays of HGFA, matriptase, and hepsin activity: Compounds (0-20 μM final concentration in reaction) were diluted in DMSO (2% DMSO final concentration in reaction) and then mixed with either recombinant HGFA serine protease domain, matriptase (#3946-SE-010, R&D Systems, Minneapolis, Minnesota), or activated hepsin* (#4776-SE-010, R&D Systems, Minneapolis, Minnesota) in black 384 well plates (Corning #3575. Coming, NY). The final assay concentration for HGFA, matriptase, and hepsin, were 6.25 nM, 0.2 nM, and 0.3 nM, respectively in TNC buffer (25 mM Tris, 150 mM NaCl, 5 mM CaCl2, 0.01% Triton X-100, pH 8). After thirty minutes of incubation at room temperature, Boc-QLR-AMC substrate was added (HGFA assay) or Boc-QAR-AMC substrate (matriptase, and hepsin assays). Fluorescence (excitation at 380 nm and emission at 460 nm) was kinetically measured at room temperature over a 1 hour time period using a Biotek Synergy 2 plate reader (Winnoski, VT). From a plot of the mean reaction velocity versus the inhibitor concentration, a non-linear four parameter curve fit was performed using GraphPad Prism (GraphPad Software, San Diego, CA) to determine inhibitor IC50s. The IC50 values were determined from the average of three or more separate experimental determinations. […]

In experiment [2] the target is T2, activated hepsin (Homo sapiens, UniProt P05981).
T2 construct: purchased R&D Systems 4776-SE-010
In words: Fluorescent kinetic enzyme assay of hepsin activity (Boc-QAR-AMC).

In experiment [3] the target is T3, matriptase (Homo sapiens, UniProt Q9Y5Y6).
T3 construct: purchased R&D Systems 3946-SE-010
T3 sequence (Q9Y5Y6 615-855 limits assumed): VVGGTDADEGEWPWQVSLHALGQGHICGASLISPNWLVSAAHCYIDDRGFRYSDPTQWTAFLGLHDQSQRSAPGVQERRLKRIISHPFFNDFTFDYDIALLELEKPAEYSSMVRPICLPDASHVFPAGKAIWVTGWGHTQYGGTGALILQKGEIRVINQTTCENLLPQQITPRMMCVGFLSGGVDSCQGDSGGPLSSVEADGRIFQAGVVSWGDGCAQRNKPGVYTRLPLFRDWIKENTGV
Nature of the experiment: Fluorescent kinetic enzyme assay of matriptase activity (Boc-QAR-AMC).

Experiment [4] deals with Factor Xa (Homo sapiens, UniProt P00742). In words: Chromogenic kinetic enzyme assay of Factor Xa (S2222). The method, then: (§1) Using GraphPad Prism (GraphPad Software, San Diego, CA), a four-parameter curve fit was used to determine the inhibitor IC50s from a plot of the mean reaction velocity versus the inhibitor concentration. The IC50 values represent the average of three or more separate experimental determinations. Apparent Ki values were calculated from the IC50 values using the Cheng and Prusoff equation (Ki=IC50/(1+[S]/Km).
(§2) Using GraphPad Prism version 6.04 software program, (GraphPad Software, San Diego, CA, graphpad.com), a four parameter curve fit was used to determine the inhibitor IC50s from a plot of the mean reaction velocity versus the inhibitor concentration.
(§3) Fluorescent inhibitor and chromogenic proteolytic assays were performed for compounds prepared in Example 11 in general accordance with the procedures described in Example 9.

The target of experiment [5] is recombinant thrombin (Homo sapiens, UniProt P00734). In words: Chromogenic kinetic enzyme assay of thrombin (S2238). The method, then: as §1, §2, §3
The mark [6] stands for this setting: Table 2, read-out: HGFA (IC50 nM).
Setting [7] is: Table 2, read-out: Hepsin (IC50 nM).
The mark [8] stands for this setting: Table 2, read-out: Matriptase (IC50 nM).
The mark [9] stands for this setting: Table 2, chromogenic assay, read-out: Factor Xa* (IC50 nM).
The mark [10] stands for this setting: Table 2, chromogenic assay, read-out: Thrombin* (IC50 nM).
Setting [11] is: Example 12, read-out: IC50 for hepsin.
Setting [12] is: Table 3, average of three experiments, read-out: Thrombin IC50.
[13] abbreviates: Example 12, read-out: IC50 for matriptase.

Where two headings read alike, the source gives them in different places.

T2 sequence (P05981 163-417 limits assumed): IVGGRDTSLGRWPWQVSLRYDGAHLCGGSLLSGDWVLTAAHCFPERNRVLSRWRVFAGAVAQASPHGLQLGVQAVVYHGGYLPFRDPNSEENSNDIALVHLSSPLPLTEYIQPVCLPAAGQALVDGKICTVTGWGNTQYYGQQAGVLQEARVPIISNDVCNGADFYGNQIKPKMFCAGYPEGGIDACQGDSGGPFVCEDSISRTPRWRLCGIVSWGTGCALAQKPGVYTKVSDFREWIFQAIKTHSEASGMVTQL
T2 sequence (P05981 1-162 partner limits assumed): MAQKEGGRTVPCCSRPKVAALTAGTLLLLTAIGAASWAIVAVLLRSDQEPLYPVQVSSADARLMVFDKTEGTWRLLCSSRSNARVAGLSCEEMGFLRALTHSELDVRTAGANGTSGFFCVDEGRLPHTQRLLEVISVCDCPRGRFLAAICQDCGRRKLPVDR
Chain of Factor Xa (P00742 235-488 limits assumed): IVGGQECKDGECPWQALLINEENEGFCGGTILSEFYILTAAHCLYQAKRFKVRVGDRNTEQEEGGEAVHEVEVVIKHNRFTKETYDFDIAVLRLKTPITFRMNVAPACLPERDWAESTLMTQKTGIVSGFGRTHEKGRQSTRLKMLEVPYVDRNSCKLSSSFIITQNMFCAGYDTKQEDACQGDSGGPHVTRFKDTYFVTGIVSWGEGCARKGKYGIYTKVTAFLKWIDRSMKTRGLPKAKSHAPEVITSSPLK
Chain of Factor Xa (P00742 41-179 partner limits assumed): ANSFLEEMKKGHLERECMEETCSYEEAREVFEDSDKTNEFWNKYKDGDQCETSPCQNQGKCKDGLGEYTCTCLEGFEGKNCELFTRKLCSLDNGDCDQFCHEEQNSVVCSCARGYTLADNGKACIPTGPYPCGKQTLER

`CC(C)C[C@@H]1NC(=O)[C@@H](N)CC(=O)NCCCC[C@@H](C(=O)N[C@@H](CCCNC(=N)N)C(=O)c2nc3ccccc3s2)NC1=O` [VD2055, (3S,6S,14S)-6-amino-N—((S)-1-(benzo[d]thiazol-2-yl)-5-guanidino-1-oxopentan-2-yl)-3-isobutyl-2,5,8-trioxo-1,4,9-triazacyclotetradecane-14-carboxamide]: the IC50 (usually the concentration that inhibits the measured activity by half) in experiment [1] (setting [6]) amounted to 11400 nM; in experiment [2] (setting [7]), 0.46 nM; in experiment [3] (setting [8]) it was 0.86 nM; in experiment [4] (setting [9]), 1550 nM.
Turning to `CC(=O)N[C@H]1CC(=O)NCCCC[C@@H](C(=O)N[C@@H](CCCNC(=N)N)C(=O)c2nc3ccccc3s2)NC(=O)[C@H](C)NC1=O` [VD3141, (3S,6S,14S)-6-acetamido-N—((S)-1-(benzo[d]thiazol-2-yl)-5-guanidino-1-oxopentan-2-yl)-3-methyl-2,5,8-trioxo-1,4,9-triazacyclotetradecane-14-carboxamide], the half-inhibitory concentration (IC50) in experiment [1] (setting [6]) is 13700 nM; in experiment [2] (setting [7]) it was 8.8 nM; in experiment [5] (setting [10]) it was over 20000 nM; in experiment [3] (setting [8]), 2.5 nM.
Regarding `CC(=O)N[C@H]1CCCCn2cc(nn2)C[C@H](C(=O)N[C@H](CCCNC(=N)N)C(=O)c2nc3ccccc3s2)NC(=O)[C@H](CC(C)C)NC1=O` [VD4118B], the IC50 in experiment [1] (setting [6]) came to 10900 nM; in experiment [2] (setting [7]), 137 nM; in experiment [3] (setting [8]), 91.2 nM; in experiment [4] (setting [9]) it was 9540 nM.
In the same order, the values of `CC(=O)N[C@H]1CCCCn2cc(nn2)C[C@H](C(=O)N[C@@H](CCCNC(=N)N)C(=O)c2nc3ccccc3s2)NC(=O)[C@H](CC(C)C)NC1=O` [VD4118] are 15600 nM, 117 nM, 19.5 nM and 1930 nM.
Take `CC(=O)N[C@@H](CCC(N)=O)C(=O)N[C@@H](Cc1ccccc1)C(=O)NC(CCCNC(=N)N)C(=O)c1nc2ccccc2s1` (stereo partly shown) [MM3144, Ac-QFR-kbt]: in experiment [5] (setting [10]), the IC50 was over 20000 nM.
Turning to `CC(=O)N[C@H]1CC(=O)NCCCC[C@@H](C(=O)N[C@@H](CCCNC(=N)N)C(=O)c2nccs2)NC(=O)[C@H](CC(C)C)NC1=O` [VD3076, (3S,6S,14S)-6-acetamido-N—((S)-5-guanidino-1-oxo-1-(thiazol-2-yl)pentan-2-yl)-3-isobutyl-2,5,8-trioxo-1,4,9-triazacyclotetradecane-14-carboxamide], the IC50 in experiment [2] (setting [7]) was determined as 136 nM; in experiment [5] (setting [10]), 7940 nM; in experiment [3] (setting [8]) it was 41.3 nM; in experiment [4] (setting [9]), 1360 nM.
`CC(=O)N1CCC(CCc2ccccc2)(OC(=O)N[C@@H](CC(C)C)C(=O)N[C@@H](CCCNC(=N)N)C(=O)c2nc3ccccc3s2)CC1` [Compound 8c, 1-acetyl-4-phenethylpiperidin-4-yl ((S)-1-(((S)-1-(benzo[d]thiazol-2-yl)-5-guanidino-1-oxopentan-2-yl)amino)-4-methyl-1-oxopentan-2-yl)carbamate]: the IC50 in experiment [2] (setting [11]) stood at 0.5 nM; in experiment [5] (setting [12]) it was 7700 nM; in experiment [3] (setting [13]) it was 70 nM; in experiment [4] (Table 3, average of three experiments, read-out: Factor Xa IC50), 2000 nM.
On to `CC(C)C[C@H](NC(=O)OC1(Cc2ccccc2)CCNCC1)C(=O)N[C@@H](CCCNC(=N)N)C(=O)c1nc2ccccc2s1` [Compound 8b, 4-benzylpiperidin-4-yl((S)-1-(((S)-1-(benzo[d]thiazol-2-yl)-5-guanidino-1-oxopentan-2-yl)amino)-4-methyl-1-oxopentan-2-yl)carbamate], for which the IC50 in experiment [1] (Table 3, average of three experiments, read-out: HGFA IC50) was 1200 nM; in experiment [2] (setting [11]), 0.6 nM; in experiment [5] (setting [12]), over 20000 nM; in experiment [3] (setting [13]), 30 nM.
As for `CSCCC[C@H](NC(C)=O)C(=O)N[C@@H](CCC(N)=O)C(=O)N[C@@H](Cc1ccccc1)C(=O)N[C@@H](CCCNC(=N)N)C(=O)c1nc2ccccc2s1` [MM3130, Ac-MQFR-kbt], the IC50 in experiment [5] (setting [10]) was over 20000 nM.
Regarding `CC(=O)N[C@H]1Cc2ccc(cc2)OCCCC[C@@H](C(=O)N[C@@H](CCCNC(=N)N)C(=O)c2nc3ccccc3s2)NC(=O)[C@@H](Cc2c[nH]c3ccccc23)NC1=O` [VD4162B], the IC50 in experiment [5] (setting [10]) turned out to be 14600 nM; in experiment [4] (setting [9]), 1110 nM.
As to `CC(=O)N[C@H]1CC(=O)NCCCC[C@@H](C(=O)N[C@@H](CCCNC(=N)N)C(=O)c2nc3ccccc3s2)NC(=O)[C@H](Cc2ccc(O)cc2)NC1=O` [VD3158, (3S,6S,14S)-6-acetamido-N—((S)-1-(benzo[d]thiazol-2-yl)-5-guanidino-1-oxopentan-2-yl)-3-(4-hydroxybenzyl)-2,5,8-trioxo-1,4,9-triazacyclotetradecane-14-carboxamide], the IC50 in experiment [2] (setting [7]) was 44 nM; in experiment [5] (setting [10]), over 20000 nM; in experiment [3] (setting [8]), 6.1 nM; in experiment [4] (setting [9]) it was 17000 nM.
With `CC(=O)N[C@H]1CCCCNC(=O)CC[C@@H](C(=O)N[C@@H](CCCNC(=N)N)C(=O)c2nc3ccccc3s2)NC(=O)[C@H](CC(C)C)NC1=O` [VD2064, (2S,5S,14S)-14-acetamido-N—((S)-1-(benzo[d]thiazol-2-yl)-5-guanidino-1-oxopentan-2-yl)-2-isobutyl-3,8,15-trioxo-1,4,9-triazacyclopentadecane-5-carboxamide], the IC50 in experiment [1] (setting [6]) is 4470 nM; in experiment [2] (setting [7]) it was 1.7 nM; in experiment [3] (setting [8]), 4.4 nM; in experiment [4] (setting [9]), 723 nM.
